According to the supplement of paper PMC10307832:

What was measured:
Assay in all cases: relative viability (nuclei count vs DMSO), 5 days (fraction); higher = more cells survive
Shikonin + Olaparib = compound: CC(C)=CC[C@@H](O)C1=CC(=O)c2c(O)ccc(O)c2C1=O [Shikonin] + O=C(c1cc(Cc2n[nH]c(=O)c3ccccc23)ccc1F)N1CCN(C(=O)C2CC2)CC1 [Olaparib] (partner 8 µM)
Summary of the method: (§1)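 Medians of duplicate plates are given as relative viability. That measure is the nuclei count in treated wells divided by the count in vehicle wells. Counts were taken on 4× images of lung cancer cell lines in 1536-well plates, 5 days after pin-tool dosing the day after seeding with one drug alone or a fixed anchor-drug dose plus five library-drug doses (not always all listed) in √10 steps.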

Shikonin + Linsitinib = compound: CC(C)=CC[C@@H](O)C1=CC(=O)c2c(O)ccc(O)c2C1=O [Shikonin] + C[C@]1(O)C[C@@H](c2nc(-c3ccc4ccc(-c5ccccc5)nc4c3)c3c(N)nccn32)C1 [Linsitinib] (partner 1 µM)
Summary of the method: as §1

Shikonin + Lapatinib = compound: CC(C)=CC[C@@H](O)C1=CC(=O)c2c(O)ccc(O)c2C1=O [Shikonin] + CS(=O)(=O)CCNCc1ccc(-c2ccc3ncnc(Nc4ccc(OCc5cccc(F)c5)c(Cl)c4)c3c2)o1 [Lapatinib] (partner 2 µM)
Summary of the method: as §1

Shikonin + Bortezomib = compound: CC(C)=CC[C@@H](O)C1=CC(=O)c2c(O)ccc(O)c2C1=O [Shikonin] + CC(C)C[C@H](NC(=O)[C@H](Cc1ccccc1)NC(=O)c1cnccn1)B(O)O [Bortezomib] (partner 0.002 µM)
Summary of the method: as §1

Shikonin + Tozasertib = compound: CC(C)=CC[C@@H](O)C1=CC(=O)c2c(O)ccc(O)c2C1=O [Shikonin] + Cc1cc(Nc2cc(N3CCN(C)CC3)nc(Sc3ccc(NC(=O)C4CC4)cc3)n2)n[nH]1 [Tozasertib] (partner 0.1 µM)
Summary of the method: as §1

Cell Line | relative viability (Shikonin + Olaparib; first compound 0.01 µM) | relative viability (Shikonin + Olaparib; first compound 0.1 µM) | relative viability (Shikonin + Olaparib; first compound 0.3162 µM) | relative viability (Shikonin + Olaparib; first compound 1 µM) | relative viability (Shikonin + Linsitinib; first compound 0.01 µM) | relative viability (Shikonin + Linsitinib; first compound 0.1 µM) | relative viability (Shikonin + Linsitinib; first compound 0.3162 µM) | relative viability (Shikonin + Linsitinib; first compound 1 µM) | relative viability (Shikonin + Lapatinib; first compound 0.01 µM) | relative viability (Shikonin + Lapatinib; first compound 0.1 µM) | relative viability (Shikonin + Lapatinib; first compound 0.3162 µM) | relative viability (Shikonin + Lapatinib; first compound 1 µM) | relative viability (Shikonin + Bortezomib; first compound 0.01 µM) | relative viability (Shikonin + Bortezomib; first compound 0.1 µM) | relative viability (Shikonin + Bortezomib; first compound 0.3162 µM) | relative viability (Shikonin + Bortezomib; first compound 1 µM) | relative viability (Shikonin + Tozasertib; first compound 0.01 µM) | relative viability (Shikonin + Tozasertib; first compound 0.1 µM) | relative viability (Shikonin + Tozasertib; first compound 0.3162 µM) | relative viability (Shikonin + Tozasertib; first compound 1 µM)
BEN | 1.08 | 1.03 | 1.02 | 1.01 | 1.07 | 0.962 | 1.12 | 1.07 | 0.654 | 0.897 | 0.776 | 0.768 | 0.826 | 1.04 | 0.748 | 0.849 | 0.508 | 0.507 | 0.51 | 0.52
EMC-BAC-2 | 0.484 | 0.562 | 0.486 | 0.427 | 0.8 | 0.836 | 0.839 | 0.855 | 0.939 | 0.999 | 0.941 | 0.923 | 1.05 | 1.18 | 1.21 | 1.07 | 0.279 | 0.283 | 0.323 | 0.267
LU99A | 0.256 | 0.272 | 0.233 | 0.222 | 0.573 | 0.522 | 0.525 | 0.536 | 1.1 | 1.32 | 0.881 | 0.891 | 1.21 | 1.33 | 1.09 | 1.03 | 0.248 | 0.281 | 0.298 | 0.234
ABC-1 | 0.78 | 0.894 | 0.948 | 0.637 | 0.968 | 0.754 | 0.689 | 0.647 | 1.5 | 1.28 | 1.27 | 1.2 | 0.279 | 0.31 | 0.274 | 0.254 | 0.141 | 0.196 | 0.188 | 0.187
NCI-H2405 | 0.918 | 0.952 | 0.892 | 0.868 | 0.903 | 0.982 | 1.01 | 0.914 | 1.13 | 1.28 | 1.11 | 1.16 | 0.963 | 0.974 | 1.01 | 1 | 0.768 | 0.802 | 0.779 | 0.687
NCI-H2009 | 0.774 | 0.691 | 0.624 | 0.497 | 1.23 | 1.25 | 1.14 | 0.848 | 1.02 | 0.894 | 0.923 | 0.498 | 1.07 | 1.11 | 0.904 | 0.289 | 0.747 | 0.774 | 0.815 | 0.56
PC-3 [JPC-3] | 1.08 | 1.16 | 1.33 | 1.27 | 0.923 | 1.07 | 0.951 | 1.03 | 0.443 | 0.512 | 0.479 | 0.543 | 0.824 | 0.894 | 0.837 | 0.868 | 0.883 | 0.984 | 1.01 | 0.94
HARA | 0.557 | 0.7 | 0.492 | 0.574 | 1.1 | 0.925 | 1.01 | 0.925 | 0.888 | 0.903 | 0.853 | 0.77 | 1.16 | 1.24 | 1.16 | 1.24 | 0.0977 | 0.0981 | 0.115 | 0.113
NCI-H2126 | 0.953 | 1.14 | 0.943 | 0.92 | 0.71 | 0.814 | 0.752 | 0.699 | 0.779 | 0.795 | 0.81 | 0.824 | 1.16 | 1.23 | 1.1 | 1.19 | 0.91 | 0.967 | 0.869 | 0.846
NCI-H1437 | 0.661 | 0.678 | 0.601 | 0.521 | 1.28 | 1.05 | 1.23 | 1.11 | 0.846 | 0.78 | 0.884 | 0.848 | 0.643 | 0.562 | 0.527 | 0.46 | 0.417 | 0.43 | 0.405 | 0.455
NCI-H727 | 0.685 | 0.737 | 0.648 | 0.583 | 0.165 | 0.252 | 0.319 | 0.314 | 0.923 | 0.96 | 0.745 | 0.604 | 0.862 | 0.933 | 0.973 | 0.755 | 1.64 | 0.672 | 0.634 | 0.697
COR-L23 | 0.401 | 0.306 | 0.307 | 0.24 | 0.99 | 0.865 | 0.917 | 0.797 | 1.03 | 1.07 | 1.13 | 1.05 | 1.1 | 1.11 | 1.18 | 0.8 | 0.202 | 0.197 | 0.171 | 0.149
COR-L 105 | 0.672 | 0.796 | 0.558 | 0.606 | 1.1 | 0.971 | 0.845 | 0.655 | 0.339 | 0.346 | 0.318 | 0.36 | 0.88 | 0.887 | 0.751 | 0.603 | 0.254 | 0.318 | 0.327 | 0.366
201T | 0.843 | 0.893 | 0.869 | 0.951 | 1.01 | 1.04 | 1.08 | 1.03 | 1.05 | 1.12 | 1.02 | 1.05 | 1.12 | 1.23 | 1.14 | 1.15 | 0.99 | 1.14 | 0.968 | 0.935
HCC-44 | 0.963 | 1.01 | 1.07 | 0.993 | 0.798 | 0.636 | 0.685 | 0.694 | 1.07 | 1.07 | 1.05 | 1.09 | 0.946 | 0.99 | 0.864 | 0.933 | 0.901 | 0.732 | 1.19 | 0.937
NCI-H650 | 0.373 | 0.406 | 0.399 | 0.345 | 0.975 |  | 0.843 | 0.845 | 1.01 |  | 0.947 | 1.16 | 0.83 |  | 0.77 | 0.98 | 0.69 | 0.793 | 0.788 | 0.66
